Measurements: patent US12083109B2, “Neurokinin antagonists and uses thereof” (California Institute of Technology, priority 2017, dated 2024)
“Also recorded” adds a separate entry of the source.

Target: T1, hM4DREADD in Tac2+ neurons (Homo sapiens, UniProt P08173, A203G/Y113C)
T1 construct: host or cells: Tac2+ neurons of Tac2-Cre mice (dBNSTa, DMH or CeA), transduced in vivo with AAV2-EF1a-DIO-hM4D-mCherry
T1 sequence (P08173 1-479 Y113C/A203G): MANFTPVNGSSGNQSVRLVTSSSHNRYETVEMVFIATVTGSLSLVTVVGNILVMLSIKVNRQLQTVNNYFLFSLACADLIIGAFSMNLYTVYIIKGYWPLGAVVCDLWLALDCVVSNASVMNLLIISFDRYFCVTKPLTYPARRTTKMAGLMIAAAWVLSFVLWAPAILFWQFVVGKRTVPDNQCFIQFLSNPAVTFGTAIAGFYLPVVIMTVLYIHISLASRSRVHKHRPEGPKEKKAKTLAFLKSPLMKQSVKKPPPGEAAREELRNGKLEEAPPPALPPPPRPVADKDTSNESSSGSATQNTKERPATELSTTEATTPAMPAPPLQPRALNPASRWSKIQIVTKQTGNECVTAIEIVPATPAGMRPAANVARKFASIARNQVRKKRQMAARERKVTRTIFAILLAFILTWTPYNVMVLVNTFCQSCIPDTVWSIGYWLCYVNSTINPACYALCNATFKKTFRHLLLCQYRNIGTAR
Assay: Shock reactivity, CNO silencing of Tac2+ neurons (hM4DREADD)
Format: in vivo, mouse
Settings: hM4DREADD in CeA
Method: The protocol for tone trace fear conditioning was performed as previously described (Cushman et al., 2014; incorporated by reference in its entirety) using fear conditioning boxes previously described in detail (Haubensak et al., 2010; Kunwar et al., 2015; incorporated by reference in their entirety). Briefly, mice were transported in squads of four on a white cart to a novel behavioral testing room containing 4 sound-attenuating fear-conditioning chambers (Med Associates). This “training context” was comprised of flat grid flooring (wired to a shock generator and scrambler for footshock delivery, Med Associates), houselights, and the presence of an internal fan for background noise. Chambers were sprayed with 70% Simple Green solution on the underlying chamber pan to generate a unique contextual scent and chambers were cleaned with 70% EtOH between squads. […] Freezing behavior during the baseline period as well as during each tone presentation (“during”) and trace interval (“post”) were assessed as previously described (Zelikowsky et al., 2014; incorporated by reference in its entirety) using automated near-infrared video tracking equipment and computer software (VideoFreeze, Med Associates). Shock reactivity (motion, arbitrary units) was measured during the 2 second shock US as well as the 3 seconds immediately following. […]

## C[N+]1([O-])CCN(C2=Nc3cc(Cl)ccc3Nc3ccccc32)CC1 [CNO, clozapine-N-oxide]
  SIS-enhanced shock reactivity: suppressed; also recorded: attenuated
